Source: patent US6071905A, “Biologically active substance on the basis of tetracyclic nitrogen heterocycles of pyrimidine row” (Natural Drug Sciences, LLC, priority 1998, dated 2000)

Test system: M. tuberculosis 16R
Assay: action on pathogenic mycobacteria from patients, Lowenstein-Jensen medium, M. tuberculosis 16R
Assay type: cell-based
Conditions: title: concentration of compound 10.0 g/l; 30 days; resistant to control compounds

| SMILES | antimicrobial action, M. tuberculosis 16R |
| --- | --- |
| CC[C@@H](CO)NCCN[C@@H](CC)CO [Ethambutol, reference compound] | growth |
| CO[C@H]1/C=C/O[C@@]2(C)Oc3c(C)c(O)c4c(O)c(cc(O)c4c3C2=O)NC(=O)/C(C)=C\C=C\[C@H](C)[C@H](O)[C@@H](C)[C@@H](O)[C@@H](C)[C@H](OC(C)=O)[C@@H]1C [Rifamycin, reference compound] | growth |
| NNC(=O)c1ccncc1 [Isoniazid, hydrazide of izonicotinic acid, reference compound] | growth |
| [H]/N=C(/N)N[C@H]1[C@H](O)[C@@H](O)[C@H](O[C@@H]2O[C@@H](C)[C@](O)(C=O)[C@H]2O[C@@H]2O[C@@H](CO)[C@H](O)[C@@H](O)[C@@H]2NC)[C@@H](N/C(N)=N\[H])[C@@H]1O [Streptomycin, reference compound] | growth |
